Tests used:
Format in all cases: cell-based
mouse islets [1] = experiment: Mouse islet perifusion, control and Gipr beta-cell knockout islets ± Ex9 (Fig. 1a), insulin secretion; settings: Ex9 1 μM
Procedure: (§1) In brief, islets were individually picked to ensure consistency across chambers with respect to both number and size. […] Insulin values were measured with a Lumit insulin immunoassay (Promega) using an EnVision plate reader (PerkinElmer).

mouse islets [2] = experiment: Mouse islet perifusion with incretin receptor antagonists (Fig. 1b), insulin secretion; settings: antagonists 1 μM, tirzepatide 0–100 nM
Procedure: as §1

human islets [3] = experiment: Human islet perifusion, insulin secretion (Fig. 2); settings: human islets stimulated with TZP; for TZP insulin secretion iAUC, Percent Control: % of Average Control (PBS); for TZP insulin secretion iAUC: PBS or antagonist(s) as labelled
Procedure: (§2) Human islets were obtained from both the Alberta Diabetes Institute and the Integrated Islet Distribution Program. All islets were obtained from consenting donors. Details for the general perifusion protocol have been previously described[21] and are similar to the mouse perifusion protocol. […] Each set of human islets consisted of n = 3 for each condition. These were averaged to generate a single data point (Fig. 2c). Insulin values were measured with a Lumit insulin immunoassay (Promega) using an EnVision plate reader (PerkinElmer). For the glucagon secretion experiments (Fig. 3), the average glucagon values were calculated during control (minutes 35–45) and stimulated (minutes 55–65) conditions. All peptides were used at 30 nM concentrations based on previous work[16]. Amino acids were used at concentrations of 3 mM based on previous work[11]. Glucagon was measured with a Lumit Glucagon Immunoassay Kit (cat. no. CS3037A02; Promega) using an EnVision plate reader (PerkinElmer). Somatostatin was measured with an ELISA assay (cat. no. FEK-060-14; Phoenix Pharmaceuticals). All data are expressed as the measured concentration relative to both flow rate and islet number (insulin, ng ml^–1 × (1/200 µl ml^–1) × (1/75 islets); glucagon, pM × (1/200 µl ml^–1) × (1/75 islets); somatostatin, pg ml^–1 × (1/200 µl ml^–1) × (1/75 islets))[49]. Human pancreatic islets and pancreas tissue were isolated from deceased donors under ethical approval from the Human Research Ethics Board of the University of Alberta (Pro00013094, Pro00001754) and obtained from the NIDDK-funded Integrated Islet Distribution Program (IIDP) (RRID: SCR _014387). All donors’ families gave informed consent for the use of pancreatic tissue in research and were not financially compensated.

human islets [4] = experiment: Human islet perifusion, insulin secretion with Ex9 or hGIP(3-30) (Extended Data Fig. 2); design: key to iAUC: insulin iAUC, ng/ml × (1/200 µl/ml) × (1/75 islets), baseline = first point; settings: insulin secretion; for Mean (One way ANOVA): iAUC, Control = 1, mean of n = 3; for iAUC: TZP + PBS or labelled antagonist
Procedure: as §2
The integrated area under the curve (iAUC) was calculated for both glucose and tirzepatide stimulated insulin secretion using the value of the first time point as the baseline. All values are mean + /- SEM, n = 3/group. A one-way ANOVA with Tukey’s posthoc test was used. Source data

What does the source list for exendin(9-39) [Ex9]?
Effect on tirzepatide-stimulated insulin secretion (mouse islets [1]): completely blocked insulin secretion in response to tirzepatide; Effect on tirzepatide-stimulated insulin secretion (mouse islets [2]): prevented insulin secretion in response to tirzepatide; TZP insulin secretion iAUC, Percent Control (human islets [3]; donor R434, replicate 1): 81.0 %Control; TZP insulin secretion iAUC, Percent Control (human islets [3]; donor R434, replicate 2): 70.5 %Control; TZP insulin secretion iAUC, Percent Control (human islets [3]; donor R434, replicate 3): 110.7 %Control; TZP insulin secretion iAUC (human islets [3]; donor R434, replicate 1): 149.1; TZP insulin secretion iAUC (human islets [3]; donor R434, replicate 2): 129.7; TZP insulin secretion iAUC (human islets [3]; donor R434, replicate 3): 203.7; TZP insulin secretion iAUC, Percent Control (human islets [3]; donor R443, replicate 1): 152.6 %Control; TZP insulin secretion iAUC, Percent Control (human islets [3]; donor R443, replicate 2): 43.9 %Control; TZP insulin secretion iAUC, Percent Control (human islets [3]; donor R443, replicate 3): 123.9 %Control; TZP insulin secretion iAUC (human islets [3]; donor R443, replicate 1): 9.764; TZP insulin secretion iAUC (human islets [3]; donor R443, replicate 2): 2.809; TZP insulin secretion iAUC (human islets [3]; donor R443, replicate 3): 7.929; TZP insulin secretion iAUC, Percent Control (human islets [3]; donor R444, replicate 1): 49.3 %Control; TZP insulin secretion iAUC, Percent Control (human islets [3]; donor R444, replicate 2): 46.5 %Control; TZP insulin secretion iAUC, Percent Control (human islets [3]; donor R444, replicate 3): 59.5 %Control; TZP insulin secretion iAUC (human islets [3]; donor R444, replicate 1): 12.31; TZP insulin secretion iAUC (human islets [3]; donor R444, replicate 2): 11.61; TZP insulin secretion iAUC (human islets [3]; donor R444, replicate 3): 14.86; TZP insulin secretion iAUC, Percent Control (human islets [3]; donor R448, replicate 1): 95.4 %Control; TZP insulin secretion iAUC, Percent Control (human islets [3]; donor R448, replicate 2): 86.1 %Control; TZP insulin secretion iAUC, Percent Control (human islets [3]; donor R448, replicate 3): 78.6 %Control; TZP insulin secretion iAUC (human islets [3]; donor R448, replicate 1): 169.1; TZP insulin secretion iAUC (human islets [3]; donor R448, replicate 2): 152.5; TZP insulin secretion iAUC (human islets [3]; donor R448, replicate 3): 139.2; TZP insulin secretion iAUC, Percent Control (human islets [3]; donor R449, replicate 1): 10.8 %Control; TZP insulin secretion iAUC, Percent Control (human islets [3]; donor R449, replicate 2): 15.5 %Control; TZP insulin secretion iAUC, Percent Control (human islets [3]; donor R449, replicate 3): 25.1 %Control; TZP insulin secretion iAUC (human islets [3]; donor R449, replicate 1): 14.8; TZP insulin secretion iAUC (human islets [3]; donor R449, replicate 2): 21.27; TZP insulin secretion iAUC (human islets [3]; donor R449, replicate 3): 34.32; TZP insulin secretion iAUC, Percent Control (human islets [3]; donor R451, replicate 1): 39.0 %Control; TZP insulin secretion iAUC, Percent Control (human islets [3]; donor R451, replicate 2): 22.6 %Control; TZP insulin secretion iAUC, Percent Control (human islets [3]; donor R451, replicate 3): 24.7 %Control; TZP insulin secretion iAUC (human islets [3]; donor R451, replicate 1): 36.08; TZP insulin secretion iAUC (human islets [3]; donor R451, replicate 2): 20.91; TZP insulin secretion iAUC (human islets [3]; donor R451, replicate 3): 22.84; TZP insulin secretion iAUC, Percent Control (human islets [3]; donor S1472, replicate 1): 91.9 %Control; TZP insulin secretion iAUC, Percent Control (human islets [3]; donor S1472, replicate 2): 146.0 %Control; TZP insulin secretion iAUC, Percent Control (human islets [3]; donor S1472, replicate 3): 127.6 %Control; TZP insulin secretion iAUC (human islets [3]; donor S1472, replicate 1): 50.05; TZP insulin secretion iAUC (human islets [3]; donor S1472, replicate 2): 79.46; TZP insulin secretion iAUC (human islets [3]; donor S1472, replicate 3): 69.48; TZP insulin secretion iAUC, Percent Control (human islets [3]; donor S2886, replicate 1): 19.6 %Control; TZP insulin secretion iAUC, Percent Control (human islets [3]; donor S2886, replicate 2): 20.0 %Control; TZP insulin secretion iAUC, Percent Control (human islets [3]; donor S2886, replicate 3): 50.9 %Control; TZP insulin secretion iAUC (human islets [3]; donor S2886, replicate 1): 36.46; TZP insulin secretion iAUC (human islets [3]; donor S2886, replicate 2): 37.22; TZP insulin secretion iAUC (human islets [3]; donor S2886, replicate 3): 94.97; Mean (One way ANOVA) (human islets [4]; donor R464, R464 (3-30) TZP): 1.267; Mean (One way ANOVA) (human islets [4]; donor S5423, SAMN5423 (3-30) TZP): 1.135; iAUC (human islets [4]; donor R464, replicate 1): 1.277; iAUC (human islets [4]; donor R464, replicate 2): 1.0253; iAUC (human islets [4]; donor R464, replicate 3): 1.497; iAUC (human islets [4]; donor S5423, replicate 1): 1.294; iAUC (human islets [4]; donor S5423, replicate 2): 1.08; iAUC (human islets [4]; donor S5423, replicate 3): 1.031
